Columns and labels:
TRPV1 receptor = target: T1, TRPV1 receptor (Rattus norvegicus, UniProt O35433); assay: Test of inhibition of the current induced with capsaicin on rat DRGs (whole-cell patch-clamp); assay type: cell-based; conditions: inhibition of control capsaicin response, primary culture of newborn rat DRG neurones
T1 construct: DRG neurones naturally express the TRPV1 receptor; endogenous in cells; host or cells: primary culture of newborn (1-day-old) rat dorsal root ganglion neurones
Procedure: Test of Inhibition of the Current Induced with Capsaicin on Rat DRGs • Primary culture of rat dorsal root ganglion (DRG) cells:
DRG neurones naturally express the TRPV1 receptor.
The primary cultures of newborn rat DRGs are prepared using 1-day-old rats. Briefly, after dissection, the ganglions are trypsinized and the cells dissociated by mechanical trituration. The cells are resuspended in an Eagle basal culture medium containing 10% foetal calf serum, 25 mM KCl, 2 mM glutamine, 100 μg/ml gentamicin and 50 ng/ml of NGF, and then deposited on glass slides coated with laminin (0.25×10^6 cells per slide), which are then placed in Corning 12-well dishes. The cells are incubated at 37° C. in a humidified atmosphere containing 5% CO2 and 95% air. […]
The measuring chambers (volume 800 μl) containing the cell preparation are placed on the platform of an inverted microscope (Olympus IMT2) equipped with Hoffman optics (Modulation Contrast, New York) and observed at a magnification of 400×. […] The overall currents (membrane potential set at −60 mV) are recorded with an Axopatch 1D amplifier (Axon Instruments, Foster City, Calif.), connected to a PC running the Pclamp8 software (Axon Instrument). The current plots are recorded on paper and simultaneously digitized (sampling frequency 15 to 25 Hz) and acquired on the hard drive of the PC. […]

T1 sequence (O35433 whole entry): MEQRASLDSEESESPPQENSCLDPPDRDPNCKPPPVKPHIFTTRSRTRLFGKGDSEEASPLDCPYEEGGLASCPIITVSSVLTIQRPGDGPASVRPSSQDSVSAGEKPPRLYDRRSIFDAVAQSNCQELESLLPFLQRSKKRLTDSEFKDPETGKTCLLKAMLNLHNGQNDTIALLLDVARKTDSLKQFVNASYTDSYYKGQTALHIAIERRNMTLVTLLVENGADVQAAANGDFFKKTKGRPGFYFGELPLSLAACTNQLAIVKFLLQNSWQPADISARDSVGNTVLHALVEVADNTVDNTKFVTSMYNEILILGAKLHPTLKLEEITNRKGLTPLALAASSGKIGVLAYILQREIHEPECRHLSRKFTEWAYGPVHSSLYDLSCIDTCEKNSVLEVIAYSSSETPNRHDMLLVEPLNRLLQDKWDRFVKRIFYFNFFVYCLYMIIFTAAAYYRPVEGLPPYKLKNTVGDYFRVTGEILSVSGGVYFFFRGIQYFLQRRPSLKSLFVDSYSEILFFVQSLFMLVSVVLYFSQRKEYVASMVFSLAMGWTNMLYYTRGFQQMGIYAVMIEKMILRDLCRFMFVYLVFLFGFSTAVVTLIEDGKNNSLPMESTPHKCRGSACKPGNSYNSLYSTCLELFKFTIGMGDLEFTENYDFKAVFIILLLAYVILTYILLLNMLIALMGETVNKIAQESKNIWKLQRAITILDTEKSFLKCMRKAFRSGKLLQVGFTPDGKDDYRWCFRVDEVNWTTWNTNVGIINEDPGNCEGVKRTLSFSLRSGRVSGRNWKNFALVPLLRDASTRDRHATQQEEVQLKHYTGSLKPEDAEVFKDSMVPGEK

SMILES	melting point [°C]	inhibition at 0.001 µM (TRPV1 receptor; compound at 1 nM) [%]	inhibition at 0.1 µM (TRPV1 receptor; compound at 100 nM) [%]
Cc1nc2cc(NC(=O)c3cc4cc(F)ccc4n3Cc3cccc(F)c3)ccn2c1-c1ccccc1	305 to 307		
O=C(Nc1ccn2cc(-c3cccs3)nc2c1)c1cc2cc(F)ccc2n1Cc1cccc(F)c1	259 to 260		
CC(C)(C)c1cn2ccc(NC(=O)c3cc4cc(F)ccc4n3Cc3cccc(F)c3)cc2n1	327 to 328		
Cc1nc2cc(NC(=O)c3cc4cc(C(F)(F)F)ccc4n3Cc3cccc(F)c3)ccn2c1C	280 to 281		
CCc1cn2ccc(NC(=O)c3cc4cc(C(F)(F)F)cnc4n3Cc3cccc(F)c3)cc2n1	264 to 265		
Cc1nc2cc(NC(=O)c3cc4cc(C(F)(F)F)cnc4n3Cc3cccc(F)c3)ccn2c1C	287 to 288		
O=C(Nc1ccn2cc(CO)nc2c1)c1cc2cc(C(F)(F)F)ccc2n1Cc1cccc(F)c1	254 to 255		
O=C(Nc1ccn2cc(CO)nc2c1)c1cc2cc(C(F)(F)F)cnc2n1Cc1cccc(F)c1	238 to 240		
Cc1cn2ccc(NC(=O)c3cc4cc(F)ccc4n3Cc3cccc(F)c3)cc2n1	267 to 268		
CCOC(=O)c1cn2nc(NC(=O)c3cc4cc(F)ccc4n3Cc3cccc(F)c3)ccc2n1	267 to 268		
CCOC(=O)c1cn2cc(NC(=O)c3cc4cc(F)ccc4n3Cc3cccc(F)c3)ccc2n1	242 to 245		
Cc1cn2cc(NC(=O)c3cc4cc(F)ccc4n3Cc3cccc(F)c3)ccc2n1	200 to 203		
O=C(Nc1ccc2nc(CO)cn2c1)c1cc2cc(F)ccc2n1Cc1cccc(F)c1	247 to 249		
CCc1cn2cc(NC(=O)c3cc4cc(F)ccc4n3Cc3cccc(F)c3)ccc2n1	278 to 279		
O=C(Nc1ccc2nc(-c3cccs3)cn2c1)c1cc2cc(F)ccc2n1Cc1cccc(F)c1	316 to 318		
CC(C)(C)c1cn2cc(NC(=O)c3cc4cc(F)ccc4n3Cc3cccc(F)c3)ccc2n1	190 to 192		
COCc1cn2ccc(NC(=O)c3cc4cc(F)ccc4n3Cc3cccc(F)c3)cc2n1	215 to 216		
O=C(Nc1ccn2cc(CO)nc2c1)c1cc2cc(F)ccc2n1Cc1cccc(F)c1	244 to 245		
Cc1nc2cc(NC(=O)c3cc4cc(F)ccc4n3Cc3cccc(F)c3)ccn2c1C [Compound 1, N-(2,3-Dimethylimidazo[1,2-a]pyrid-7-yl)-5-fluoro-1-[(3-fluorophenyl)methyl]-1H-indole-2-carboxamide]		81.5	
Cc1cc2ncc(NC(=O)c3cc4cc(F)ccc4n3Cc3cccc(F)c3)cn2n1 [Compound 20, N-(2-Methylpyrazolo[1,5-a]pyrimidin-6-yl)-5-fluoro-1-[(3-fluorophenyl)methyl]-1H-indole-2-carboxamide]	267 to 268		80
